Read-outs that look alike come from different tables or passages of the source.
Columns and labels:
[1] = system: subjects with COPD; details: 400 mcg and 1200 mcg once daily, 14 days; cited from earlier work
[2] = system: subjects with COPD; details: 28-day study; cited from earlier work
[3] = system: subjects with persistent uncontrolled asthma; assay: Randomised, double-blind, placebo-controlled parallel group study of fluticasone furoate in subjects with persistent uncontrolled asthma (8 weeks); format: in vivo, human
Method: In one such study, the safety and efficacy of four doses of fluticasone furoate in subjects with persistent uncontrolled asthma were evaluated. In this study, which was a randomised, double-blind, placebo-controlled, parallel group study, 598 patients received one of six treatments: fluticasone furoate (25, 50, 100 or 200 mcg) once daily, fluticasone propionate 100 mcg twice daily or placebo for 8 weeks. The primary endpoint was change from baseline in trough (pre-dose) forced expiratory volume in 1 second (FEV1) at Week 8. […] This study supports the use of fluticasone furoate (100 or 200 mcg once-daily) for the treatment of persistent uncontrolled asthma.

Compound	tolerability [1]	tolerability [2]	increase in trough FEV1 from baseline at Week 8 relative to placebo ([3]; 100 mcg once daily)	increase in trough FEV1 from baseline at Week 8 relative to placebo ([3]; 200 mcg once daily)
COc1cc(NC(=O)CCN2CCC(OC(=O)Nc3ccccc3-c3ccccc3)CC2)c(Cl)cc1CNC[C@H](O)c1ccc(O)c2[nH]c(=O)ccc12 [Compound 1, biphenyl-2-ylcarbamic acid 1-[2-(2-chloro-4-{[(R)-2-hydroxy-2-(8-hydroxy-2-oxo-1,2-dihydroquinolin-5-yl)ethylamino]methyl}-5-methoxyphenylcarbamoyl)ethyl]piperidin-4-yl ester]	well tolerated	well tolerated		
C[C@@H]1C[C@H]2[C@@H]3C[C@H](F)C4=CC(=O)C=C[C@]4(C)[C@@]3(F)[C@@H](O)C[C@]2(C)[C@@]1(OC(=O)c1ccco1)C(=O)SCF [Compound 2, 6α,9α-difluoro-17α-[(2-furanylcarbonyl)oxy]-11β-hydroxy-16α-methyl-3-oxo-androsta-1,4-diene-17β-carbothioic acid S-fluoromethyl ester]			> 200 mL	> 200 mL
